Data: ChEMBL document CHEMBL2046431 (Bioorg Med Chem, 2012)

Assay: Permeability across human Caco2 cells
Type: ADME, cell-based
Conditions: Caco-2, read-out: permeability

| Compound | Papp |
| --- | --- |
| CN(c1cc2cc(c1)C(=O)N[C@H]([C@H](O)CNCc1ccccc1)COC/C=C/CCNC2=O)S(C)(=O)=O | ≤ 1 ×10⁻⁶ cm/s |
| CC(C)c1cccc(CNC[C@@H](O)[C@@H]2COC/C=C/CCNC(=O)c3cc(cc(N(C)S(C)(=O)=O)c3)C(=O)N2)c1 | ≤ 1 ×10⁻⁶ cm/s |
| CN(c1cc2cc(c1)C(=O)N[C@H]([C@H](O)CNCc1cccc(C(C)(C)C)c1)COC/C=C/CCNC2=O)S(C)(=O)=O | ≤ 1 ×10⁻⁶ cm/s |
| CC(C)c1cccc(CNC[C@@H](O)[C@@H]2COC/C=C/CCCNC(=O)c3cc(cc(N(C)S(C)(=O)=O)c3)C(=O)N2)c1 | ≤ 1 ×10⁻⁶ cm/s |
| CN(c1cc2cc(c1)C(=O)N[C@H]([C@H](O)CNCc1ccccc1)COCCCCCNC2=O)S(C)(=O)=O | ≤ 1 ×10⁻⁶ cm/s |
| CC(C)c1cccc(CNC[C@@H](O)[C@@H]2COCCCCCNC(=O)c3cc(cc(N(C)S(C)(=O)=O)c3)C(=O)N2)c1 | ≤ 1 ×10⁻⁶ cm/s |
| CC(C)c1cccc(CNC[C@@H](O)[C@@H]2COCCCCCCNC(=O)c3cc(cc(N(C)S(C)(=O)=O)c3)C(=O)N2)c1 | ≤ 1 ×10⁻⁶ cm/s |
| CC(C)c1cccc(CNC[C@@H](O)[C@@H]2COC/C=C\CCN(C)C(=O)c3cc(cc(N(C)S(C)(=O)=O)c3)C(=O)N2)c1 | ≤ 1 ×10⁻⁶ cm/s |
| CC(C)c1cccc(CNC[C@@H](O)[C@@H]2COC/C=C/C[C@@H](c3ccccc3)NC(=O)c3cc(cc(N(C)S(C)(=O)=O)c3)C(=O)N2)c1 | ≤ 1 ×10⁻⁶ cm/s |
| CC(C)c1cccc(CNC[C@@H](O)[C@@H]2COC/C=C/C[C@H](c3ccccc3)NC(=O)c3cc(cc(N(C)S(C)(=O)=O)c3)C(=O)N2)c1 | ≤ 1 ×10⁻⁶ cm/s |
| Cc1cc2cc(c1)C(=O)N[C@H]([C@H](O)CNCc1ccccc1)COC/C=C/CCNC2=O | ≤ 1 ×10⁻⁶ cm/s |
| Cc1cc2cc(c1)C(=O)N[C@H]([C@H](O)CNCc1cccc(C(C)C)c1)COC/C=C/CCNC2=O | ≤ 1 ×10⁻⁶ cm/s |
| Cc1cc2cc(c1)C(=O)N[C@H]([C@H](O)CNCc1cccc(C(C)C)c1)COC/C=C/C[C@@H](c1ccccc1)NC2=O | ≤ 1 ×10⁻⁶ cm/s |
| Cc1cc2cc(c1)C(=O)N[C@@H](c1ccccc1)C/C=C/COC[C@@H]([C@H](O)CNCc1cccc(C(C)C)c1)NC2=O | ≤ 1 ×10⁻⁶ cm/s |
